In one assay the target is Kv1.5 (Homo sapiens, UniProt P22460). Briefly: Kv1.5 inhibition assay (IKur inhibitor assay per cited references). The format is cell-based. Particulars: at 0.3 μM. From the text: Assays to determine the degree of activity of a compound as an IKur inhibitor are well known in the art and are described in references such as J. Gen. Physiol. Apr.; 101 (4):513-43, and Br. J. Pharmacol. 1995 May; 115(2):267-74.
Kv1.5, sequence (P22460 whole entry): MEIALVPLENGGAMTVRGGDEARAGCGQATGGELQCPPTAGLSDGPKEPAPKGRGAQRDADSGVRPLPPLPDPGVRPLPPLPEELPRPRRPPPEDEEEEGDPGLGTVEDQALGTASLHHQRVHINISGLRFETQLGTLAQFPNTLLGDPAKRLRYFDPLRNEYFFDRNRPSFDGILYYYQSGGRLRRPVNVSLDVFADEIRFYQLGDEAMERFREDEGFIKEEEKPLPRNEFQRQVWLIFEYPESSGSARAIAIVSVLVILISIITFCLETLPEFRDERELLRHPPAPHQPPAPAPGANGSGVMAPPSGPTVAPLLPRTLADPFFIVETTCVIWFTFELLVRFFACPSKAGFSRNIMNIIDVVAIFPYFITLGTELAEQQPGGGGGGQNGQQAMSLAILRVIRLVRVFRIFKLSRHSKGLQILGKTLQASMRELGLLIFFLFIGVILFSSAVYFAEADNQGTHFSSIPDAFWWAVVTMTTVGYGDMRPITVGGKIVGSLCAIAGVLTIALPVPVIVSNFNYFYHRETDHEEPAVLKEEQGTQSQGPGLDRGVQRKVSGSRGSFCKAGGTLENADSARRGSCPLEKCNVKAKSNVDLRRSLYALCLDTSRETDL
For the molecule `COc1ccccc1S(=O)(=O)C1=C(C)Nc2cc(C(F)(F)F)nn2C1c1ccc(Cl)cc1` (single isomer, unassigned) [Example 46 Isomer 2, 7-(4-Chlorophenyl)-6-(2-methoxyphenylsulfonyl)-5-methyl-2-(trifluoromethyl)-4,7-dihydropyrazolo[1,5-a]pyrimidine], the Kv1.5% inhibition stood at 74.7%. As for `CC1=C(S(=O)(=O)c2ccc(F)cc2)C(c2ccc(Cl)c(Cl)c2)n2nc(C)cc2N1` (single isomer, unassigned) [Example 1 Isomer 1, 7-(3,4-Dichlorophenyl)-6-(4-fluorophenylsulfonyl)-2,5-dimethyl-4,7-dihydropyrazolo[1,5-a]pyrimidine], the Kv1.5% inhibition is 98%.

Molecule `CC1=C(S(=O)(=O)c2ccccn2)C(c2ccc(Cl)c(Cl)c2)n2nc(C)cc2N1` (single isomer, unassigned) [Example 11 Isomer 2, 7-(3,4-Dichlorophenyl)-2,5-dimethyl-6-(pyridin-2-ylsulfonyl)-4,7-dihydropyrazolo[1,5-a]pyrimidine] yielded a Kv1.5% inhibition of 21.5%. As a reminder, the inhibition is the percentage by which the read-out fell short of the control. Higher therefore signals strong suppression. For `CC1=C(S(=O)(=O)N2CCCC2)C(c2ccc(Cl)c(Cl)c2)n2nc(C)c(Cl)c2N1` (single isomer, unassigned) [Example 69 Isomer 1, 3-Chloro-7-(3,4-dichlorophenyl)-2,5-dimethyl-6-(pyrrolidin-1-ylsulfonyl)-4,7-dihydropyrazolo[1,5-a]pyrimidine], the inhibition at 0.3 µM was 40%. `COc1ccc(S(=O)(=O)C2=C(C)Nc3cc(C)nn3C2c2nc3ccccc3n2C)cc1` (single isomer, unassigned) [Example 23 Isomer 2, 6-(4-Methoxyphenylsulfonyl)-2,5-dimethyl-7-(1-methyl-1H-benzo[d]imidazol-2-yl)-4,7-dihydropyrazolo[1,5-a]pyrimidine] came in with a Kv1.5% inhibition of 16.6%. `CC1=C(C(=O)N(C)S(=O)(=O)c2ccc(F)cc2)C(c2ccc(Cl)c(Cl)c2)n2nc(C)cc2N1` (single isomer, unassigned) [Example 80 Isomer 2, 7-(3,4-Dichlorophenyl)-N-(4-fluorophenylsulfonyl)-N,2,5-trimethyl-4,7-dihydropyrazolo[1,5-a]pyrimidine-6-carboxamide] came in with a Kv1.5% inhibition of 85%. The same measure, in the same setting: next, `COc1cccc(S(=O)(=O)C2=C(C)Nc3cc(C(F)(F)F)nn3C2c2ccc(Cl)cc2)c1` (single isomer, unassigned) [Example 40 Isomer 2, 7-(4-Chlorophenyl)-6-(3-methoxyphenylsulfonyl)-5-methyl-2-(trifluoromethyl)-4,7-dihydropyrazolo[1,5-a]pyrimidine]: 74.4%. Still for that read-out and setting: next, `CCCCS(=O)(=O)C1=C(C)Nc2cc(C)nn2C1c1ccc(Cl)c(Cl)c1` (single isomer, unassigned) [Example 18 Isomer 1, 6-(Butylsulfonyl)-7-(3,4-dichlorophenyl)-2,5-dimethyl-4,7-dihydropyrazolo[1,5-a]pyrimidine]: 84.6%. As for `CC1=C(S(=O)(=O)NC(C)(C)C)C(c2ccc(Cl)cc2)n2nc(C(F)(F)F)cc2N1` (single isomer, unassigned) [Example 57 Isomer 1, N-tert-Butyl-7-(4-chlorophenyl)-5-methyl-2-(trifluoromethyl)-4,7-dihydropyrazolo[1,5-a]pyrimidine-6-sulfonamide], the inhibition at 0.3 µM is 48.6%. As for `CCN(C(=O)C1=C(C)Nc2cc(C)nn2C1c1ccc(Cl)c(Cl)c1)S(=O)(=O)c1c(C)noc1C` (single isomer, unassigned) [Example 97 Isomer 1, 7-(3,4-Dichlorophenyl)-N-(3,5-dimethylisoxazol-4-ylsulfonyl)-N-ethyl-2,5-dimethyl-4,7-dihydropyrazolo[1,5-a]pyrimidine-6-carboxamide], the Kv1.5% inhibition worked out at 91%. The molecule `CC1=C(S(=O)(=O)NC(C)(C)C)C(c2ccc(Cl)cc2)n2nc(C(F)(F)F)cc2N1` (racemic) [Example 57, N-tert-Butyl-7-(4-chlorophenyl)-5-methyl-2-(trifluoromethyl)-4,7-dihydropyrazolo[1,5-a]pyrimidine-6-sulfonamide] registered an inhibition at 0.3 µM of 34.1%.

For `CC1=C(S(=O)(=O)NC2CCCCC2)C(c2ccc(Cl)cc2)n2nc(C(F)(F)F)cc2N1` (racemic) [Example 52, 7-(4-Chlorophenyl)-N-cyclohexyl-5-methyl-2-(trifluoromethyl)-4,7-dihydropyrazolo[1,5-a]pyrimidine-6-sulfonamide], the inhibition at 0.3 µM came out at 49.6%. `CC1=C(S(=O)(=O)N2CCOCC2)C(c2ccc(Cl)c(Cl)c2)n2nc(C(F)(F)F)cc2N1` (single isomer, unassigned) [Example 66 Isomer 2, 7-(3,4-Dichlorophenyl)-5-methyl-6-(morpholinosulfonyl)-2-(trifluoromethyl)-4,7-dihydropyrazolo[1,5-a]pyrimidine] registered a Kv1.5% inhibition of 49%.

`CC1=C(S(=O)(=O)C2CCCCC2)C(c2ccc(Cl)c(Cl)c2)n2nc(C)cc2N1` (single isomer, unassigned) [Example 10 Isomer 2, 6-(Cyclohexylsulfonyl)-7-(3,4-dichlorophenyl)-2,5-dimethyl-4,7-dihydropyrazolo[1,5-a]pyrimidine]: the inhibition at 0.3 µM is 59.3%. As for `CC1=C(C(=O)N2CCCCS2(=O)=O)C(c2ccc(Cl)c(Cl)c2)n2nc(C)cc2N1` (single isomer, unassigned) [Example 84 Isomer 1], the Kv1.5% inhibition was 19%. Turning to `CC1=C(S(=O)(=O)N(C)c2ccccc2)C(c2ccc(Cl)c(Cl)c2)n2nc(C)cc2N1` (racemic) [Example 60, 7-(3,4-Dichlorophenyl)-N,2,5-trimethyl-N-phenyl-4,7-dihydropyrazolo[1,5-a]pyrimidine-6-sulfonamide], at 0.3 µM the inhibition was 83.2%.

`CC1=C(S(=O)(=O)c2ccc(Cl)cc2)C(c2ccc(Cl)cc2)n2nc(C(F)(F)F)cc2N1` (single isomer, unassigned) [Example 31 Isomer 2, 7-(4-Chlorophenyl)-6-(4-chlorophenylsulfonyl)-5-methyl-2-(trifluoromethyl)-4,7-dihydropyrazolo[1,5-a]pyrimidine] had a Kv1.5% inhibition of 81.9%. For `COc1cccc(S(=O)(=O)C2=C(C)Nc3cc(C(F)(F)F)nn3C2c2ccc(Cl)c(Cl)c2)c1` (single isomer, unassigned) [Example 39 Isomer 2, 7-(3,4-Dichlorophenyl)-6-(3-methoxyphenylsulfonyl)-5-methyl-2-(trifluoromethyl)-4,7-dihydropyrazolo[1,5-a]pyrimidine], the Kv1.5% inhibition amounted to 79.6%. The same measure, in the same setting: the figure for `COc1ccc(S(=O)(=O)C2=C(C)Nc3cc(C)nn3C2c2nc3ccccc3n2C)cc1` (single isomer, unassigned) [Example 23 Isomer 1, 6-(4-Methoxyphenylsulfonyl)-2,5-dimethyl-7-(1-methyl-1H-benzo[d]imidazol-2-yl)-4,7-dihydropyrazolo[1,5-a]pyrimidine] is 6.5%.

`CC1=C(S(=O)(=O)N2CCCCC2)C(c2ccc(Cl)c(Cl)c2)n2nc(C(F)(F)F)cc2N1` (single isomer, unassigned) [Example 65 Isomer 1, 7-(3,4-Dichlorophenyl)-5-methyl-6-(piperidin-1-ylsulfonyl)-2-(trifluoromethyl)-4,7-dihydropyrazolo[1,5-a]pyrimidine] registered an inhibition at 0.3 µM of 81%.

The molecule `CC1=C(C(=O)N(C)S(=O)(=O)c2ccccc2)C(c2ccc(Cl)c(Cl)c2)n2nc(C(F)(F)F)cc2N1` (single isomer, unassigned) [Example 90 Isomer 1, 7-(3,4-Dichlorophenyl)-N,5-dimethyl-N-(phenylsulfonyl)-2-(trifluoromethyl)-4,7-dihydropyrazolo[1,5-a]pyrimidine-6-carboxamide] came in with an inhibition at 0.3 µM of 37%.

`CC1=C(C(=O)N2CCN(C)S2(=O)=O)C(c2ccc(Cl)c(Cl)c2)n2nc(C)cc2N1` (racemic) [Example 83] showed an inhibition at 0.3 µM of 40%.

As for `COc1cccc(S(=O)(=O)C2=C(C)Nc3cc(C(F)(F)F)nn3C2c2ccc(C)c(F)c2)c1` (single isomer, unassigned) [Example 41 Isomer 2, 7-(3-Fluoro-4-methylphenyl)-6-(3-methoxyphenylsulfonyl)-5-methyl-2-(trifluoromethyl)-4,7-dihydropyrazolo[1,5-a]pyrimidine], the Kv1.5% inhibition stood at 85.8%.

Still in this assay, the particulars now being: given as % inhibition, value given as a concentration in μM; read-out: Kv1.5% inhibition.
`COc1ccc(S(=O)(=O)N(C)C(=O)C2=C(C)Nc3cc(C)nn3C2c2ccc(Cl)c(Cl)c2)cc1` (racemic) [Example 77, 7-(3,4-Dichlorophenyl)-N-(4-methoxyphenylsulfonyl)-N,2,5-trimethyl-4,7-dihydropyrazolo[1,5-a]pyrimidine-6-carboxamide]: the IC50 is 0.172 µM.

Still in this assay, the particulars now being: read-out: Kv1.5 IC50.
Regarding `CC1=C(C(=O)N(C)S(=O)(=O)C2CC2)C(c2ccc(Cl)c(Cl)c2)n2nc(C(F)(F)F)cc2N1` (single isomer, unassigned) [Example 98 Isomer 1, N-(Cyclopropylsulfonyl)-7-(3,4-dichlorophenyl)-N,5-dimethyl-2-(trifluoromethyl)-4,7-dihydropyrazolo[1,5-a]pyrimidine-6-carboxamide], the IC50 turned out to be 0.112 µM. The same measure, in the same setting: next, `CC1=C(S(=O)(=O)C2CCCCC2)C(c2ccc(Cl)cc2)n2nc(C(F)(F)F)cc2N1` (single isomer, unassigned) [Example 29 Isomer 1, 7-(4-Chlorophenyl)-6-(cyclohexylsulfonyl)-5-methyl-2-(trifluoromethyl)-4,7-dihydropyrazolo[1,5-a]pyrimidine]: 0.204 µM; `CC1=C(S(=O)(=O)c2ccc(Cl)cc2)C(c2ccc(Cl)c(Cl)c2)n2nccc2N1` (single isomer, unassigned) [Example 2 Isomer 1, 6-(4-Chlorophenylsulfonyl)-7-(3,4-dichlorophenyl)-5-methyl-4,7-dihydropyrazolo[1,5-a]pyrimidine]: 0.092 µM.
